Measured values: ChEMBL document CHEMBL5584281, “Toward Precision Oncology: The Role of TPD in Targeting CDK2 and Beyond” (ACS Med Chem Lett, 2024)
pIC50: −log10 of the molar value.

Target: Cyclin-dependent kinase 2 (Homo sapiens, UniProt P24941)
Assay: Inhibition of CDK2 in human OVCAR-3 cells assessed as inhibition of retinoblastoma protein phosphorylation at S807/811 residues measured after 24 hrs by TR-FRET assay
Assay type: cell-based

| pIC50 | Compound |
| --- | --- |
| > 7.00 | O=C1CCC(c2ccc(N3CCN(Cc4cccc(S(=O)(=O)N5CCC(Nc6ncc(C(F)(F)F)c(-c7cnn(CC(F)(F)F)c7)n6)CC5)c4)CC3)cc2)C(=O)N1 (stereo not drawn) |
| ≥ 7.00 | Cn1nc(N2CCC(=O)NC2=O)c2ccc(C3CCN(Cc4cccc(S(=O)(=O)N5CCC(Nc6ncc(C(F)(F)F)c(-c7cnn(-c8ccccc8F)c7)n6)CC5)c4)CC3)cc21 |
| > 7.00 | O=C1CCC(N2Cc3ccc(N4CCC5(CCN(Cc6cccc(S(=O)(=O)N7CCC(Nc8ncc(C(F)(F)F)c(-c9cnn(CC(F)(F)F)c9)n8)CC7)c6)CC5)CC4)cc3C2=O)C(=O)N1 (stereo not drawn) |
| > 7.00 | Cn1nc(N2CCC(=O)NC2=O)c2ccc(C3CCN(CC4CCN(S(=O)(=O)N5CCC(Nc6ncc(C(F)(F)F)c(-c7cnn(CC(F)(F)F)c7)n6)CC5)CC4)CC3)cc21 |
| > 7.00 | O=C1CCC(N2Cc3cc(C4CN(Cc5cccc(S(=O)(=O)N6CCC(Nc7ncc(C(F)(F)F)c(-c8cnn(CC(F)(F)F)c8)n7)CC6)c5)C4)ccc3C2=O)C(=O)N1 (stereo not drawn) |
| > 7.00 | O=C1CCC(N2C(=O)c3cc(F)c(N4CC5(CN(Cc6cccc(S(=O)(=O)N7CCC(Nc8ncc(C(F)(F)F)c(-c9cnn(CC(F)(F)F)c9)n8)CC7)c6)C5)C4)cc3C2=O)C(=O)N1 (stereo not drawn) |
| > 7.00 | Cn1nc(N2CCC(=O)NC2=O)c2cc(C3CCN(Cc4cccc(S(=O)(=O)N5CCC(Nc6ncc(C(F)(F)F)c(-c7cnn(CC(F)(F)F)c7)n6)CC5)c4)CC3)ccc21 |
| > 7.00 | O=C1CCC(N2C(=O)c3cc(F)c(N4CCN(Cc5cccc(S(=O)(=O)N6CCC(Nc7ncc(Cl)c(-c8cnn(CC(F)(F)F)c8)n7)CC6)c5)CC4)cc3C2=O)C(=O)N1 (stereo not drawn) |
